Reference: PMC8989888, “Development of optimized drug-like small molecule inhibitors of the SARS-CoV-2 3CL protease for treatment of COVID-19” (Nature Communications, 2022)
Like-named read-outs stand apart in the source and are kept apart here.

Biological target: SARS-CoV-2 3CL protease (Severe acute respiratory syndrome coronavirus 2, UniProt P0DTD1)
Type: biochemical
Parameters: Avg: unit not given here
Settings: for Inhibition at 10 µM: 10 µM compound; for Inhibition at 100 µM: 100 µM compound; for IC50 / LogIC50: Figure S1 and S2
[1] = Conc 10 µM, average response of dose-response curve
[2] = Conc 15 µM, average response of dose-response curve
[3] = Conc 20 µM, average response of dose-response curve
[4] = Conc 50 µM, average response of dose-response curve
[5] = Conc 100 µM, average response of dose-response curve
[6] = Conc 200 µM, average response of dose-response curve
[7] = dose-response retest of fragment hits
[8] = Conc 10 µM, mean response (inhibition) of dose-response curve
[9] = Conc 15 µM, mean response (inhibition) of dose-response curve
[10] = Conc 20 µM, mean response (inhibition) of dose-response curve
[11] = Conc 50 µM, mean response (inhibition) of dose-response curve
[12] = Conc 100 µM, mean response (inhibition) of dose-response curve
[13] = Conc 200 µM, mean response (inhibition) of dose-response curve
[14] = dose-response curve of fragment hit
[15] = log of IC50 (µM), dose-response curve fit

SMILES | Inhibition at 10 µM | Inhibition at 100 µM | Avg [8] | Avg [9] | Avg [10] | Avg [11] | Avg [12] | Avg [13] | Avg (Conc 10 µM) | Avg (Conc 15 µM) | Avg (Conc 20 µM) | Avg (Conc 50 µM) | Avg (Conc 100 µM) | Avg (Conc 200 µM) | IC50 (dose-response curve fit) | LogIC50 [15] | also measured
CC1(C)C(=O)Nc2ccc(C(=O)CCl)cc21 [Z2160878465] | 7% | 97% |  |  |  |  |  |  |  |  |  |  |  |  |  |  | Avg [1]: 6.9; Avg [2]: 29.9; Avg [3]: 41.3; Avg [4]: 60; Avg [5]: 96.5; Avg [6]: 106.7; IC50 [7]: 28.6 µM; LogIC50 (log of IC50 in µM): 1.456
CSc1cc(C(=O)CCl)ccc1NC(C)=O [Z449369022] |  | 95% | 12.5 | 32 | 31 | 67.6 | 95.3 | 107.3 |  |  |  |  |  |  |  |  | IC50 [14]: 31 µM; LogIC50 (log10 of IC50 in µM): 1.491
CCC(=O)N1CCC(NC(=O)c2cccnc2S)C1 (stereo not shown) [Z1429050837] | 24% | 100% |  |  |  |  |  |  | 24.1 | 26.1 | 20.9 | 87.9 | 102.1 | 100.5 | 42.3 µM | 1.626 | 
O=C(NCC1(O)CCc2ccccc21)c1cccnc1S (stereo not shown) [Z1501256406] | 55% | 82% |  |  |  |  |  |  | 55.2 | 87.1 | 101.3 | 96.8 | 82.6 | 65.5 |  |  | 
O=C(NCC1CCCCC1O)c1cccnc1S (stereo not shown) [Z1252265470] | 0% | 100% |  |  |  |  |  |  | -0.7 | 22.4 | 33.5 | 82 | 99.6 | 99.1 | 25.5 µM | 1.406 | 
Cc1ccccc1CN1CCCN(C(=O)CCl)CC1 [Z2651952322] | 18% | 91% | 17.5 | 31.4 | 33.6 | 62.8 | 90.5 | 99.5 |  |  |  |  |  |  |  |  | IC50 [14]: 33.1 µM; LogIC50 (log10 of IC50 in µM): 1.52
O=C(NCC(CO)c1ccccc1)c1cccnc1S (stereo not shown) [Z1346056045] | 2% | 96% |  |  |  |  |  |  | 2.4 | 13.5 | 19.9 | 74.2 | 95.6 | 87.7 | 32.4 µM | 1.51 | 
CC(C)OC1CCC(NC(=O)c2cccnc2S)CC1 (stereo not shown) [Z1500153099] | 2% | 96% |  |  |  |  |  |  | 2.2 | 13 | 32.4 | 52.9 | 96.3 | 103 | 37.9 µM | 1.579 | 
N#C/C=C/S(=O)(=O)c1ccc(Cl)cc1 [Z1649581806] | 18% | 95% |  |  |  |  |  |  |  |  |  |  |  |  |  |  | Avg [1]: 17.8; Avg [2]: 30.7; Avg [3]: 66.2; Avg [4]: 85.5; Avg [5]: 95.1; Avg [6]: 100.5; IC50 [7]: 17.8 µM; LogIC50 (log of IC50 in µM): 1.251
C=CS(=O)(=O)c1nc2ccccc2s1 [Z3228044564] | 73% | 100% | 73.2 | 84.2 | 91.1 | 103.1 | 104 | 112.9 |  |  |  |  |  |  |  |  | 
O=C(CCl)c1ccc2c(c1)CCN(C(=O)C(F)(F)F)C2 [Z1723943157] | 42% | 81% |  |  |  |  |  |  |  |  |  |  |  |  |  |  | Avg [1]: 42.1; Avg [2]: 47.7; Avg [3]: 60.7; Avg [4]: 76.3; Avg [5]: 81; Avg [6]: 92.3; IC50 [7]: 14.4 µM; LogIC50 (log of IC50 in µM): 1.159
CN(c1ccc(C(=O)CCl)cc1)S(C)(=O)=O [Z57982062] | 47% | 94% | 47.1 | 48.1 | 62 | 79.8 | 93.6 | 99.3 |  |  |  |  |  |  |  |  | IC50 [14]: 13.5 µM; LogIC50 (log10 of IC50 in µM): 1.131
